Data published in PMC12549899 (Nature Communications, 2025).

Target: T1, DrOTOP1 E384A (Danio rerio, UniProt Q7ZWK8, E384A)
T1 construct: A previously generated codon-optimized full-length DrOTOP1[8]; (UniProt: Q7ZWK8) construct; expressed in transfected cells; host or cells: HEK-293 (CRL-1573, ATCC)
T1 sequence (Q7ZWK8 1-586 E384A): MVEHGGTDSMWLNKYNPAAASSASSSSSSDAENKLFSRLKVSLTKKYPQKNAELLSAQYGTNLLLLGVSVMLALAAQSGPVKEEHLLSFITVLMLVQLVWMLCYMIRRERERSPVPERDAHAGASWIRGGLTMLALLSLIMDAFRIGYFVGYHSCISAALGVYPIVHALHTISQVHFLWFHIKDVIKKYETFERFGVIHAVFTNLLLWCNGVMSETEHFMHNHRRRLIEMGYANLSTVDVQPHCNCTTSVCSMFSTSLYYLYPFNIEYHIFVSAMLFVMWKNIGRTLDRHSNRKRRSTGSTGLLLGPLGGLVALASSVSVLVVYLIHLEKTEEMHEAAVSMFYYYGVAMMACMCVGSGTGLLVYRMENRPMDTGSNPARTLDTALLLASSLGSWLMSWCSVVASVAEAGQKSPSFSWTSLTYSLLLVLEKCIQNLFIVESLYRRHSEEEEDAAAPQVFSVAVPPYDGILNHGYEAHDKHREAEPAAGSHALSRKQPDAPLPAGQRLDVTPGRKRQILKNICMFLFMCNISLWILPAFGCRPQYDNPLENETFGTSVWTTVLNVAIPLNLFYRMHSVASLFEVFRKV
Experiment: Whole-cell patch-clamp, inhibition of acid-evoked currents, DrOTOP1 E384A (central site)
Assay type: cell-based, zebrafish (Danio rerio)
Text: To functionally test the significance of the two binding sites identified by cryo-EM, we generated point mutations of DrOTOP1 using the binding poses and conformational changes observed in DrOTOP1_C2.2 to guide our mutations. As per the binding pose that best fits our cryo-EM density, C2.2 forms the following interactions in the outer site: hydrophobic packing against many non-polar residues W126, G130, M133, L134, F271, F570, and M573, and π-stacking with W532 (Fig. 5A). In addition, C2.2 could potentially form H-bonds with E267, if the sidechain is protonated or a water bridge is present, and with H574 if it moves closer (Fig. 5A). Likewise, C2.36 presents a heterocyclic nitrogen that can potentially form a H-bond with E267, similarly, provided a protonation or water bridge is present (Fig. 5B). In addition, C2.36 forms a T-shaped π-stacking interaction with H574, whose sidechain has rotated 90 degrees (compared to DrOTOP1_apo), presumably to accommodate the interaction (Fig. 5B). Considering other inhibitors discovered from the second round of screening, many contain functional groups like the carbonyl groups of Group 1 molecules and the heterocyclic nitrogen atoms of Group 2 molecules (Supplementary Fig. 3E), that can potentially form similar H-bonds with E267 as C2.2 and C2.36, assuming the binding modes are similar. In the central site, C2.2 binds with the following interactions: hydrophobic packing with residues V201, F271, A274, V278, and A388, π-stacking with F277, and H-bonding with E384 (Fig. 5C).
We next tested mutations of the central site (L205W, A274W, F277A, E384A L385W, A388W). V201W and S389W, two additional central site mutations, were excluded from the study due to complete loss of channel activity. Mutation of E384 to alanine is expected to disrupt potential hydrogen bonding with C2.2. Of note, E384 is one of the few charged residues in the central pocket and could form a salt bridge with K281, that could also be affected by the mutation. Additionally, in our DrOTOP1_C2.2 structure, we observed that F277 underwent a substantial rearrangement, likely to avoid steric clash and accommodate C2.2 binding. Thus, we introduced the F277A mutation to test if removing this steric clash would enhance C2.2 inhibition.
HEK-293 cells (CRL-1573, ATCC) were cultured in DMEM (Thermofisher 11995073) containing 10% fetal bovine serum (Life Technology 16000044) and Penicillin-Streptomycin (100 I.U./mL) and (100 µg/mL), respectively. Cells were transfected with WT DrOTOP1 or mutant DrOTOP1 channels in 35 mm petri dishes, with ~ 500 ng DNA and 2 μL TransIT-LT1 transfection reagent (Mirus Bio Corporation, Cat # MIR2300) following the manufacturer’s protocol. All constructs were subcloned into a pcDNA3.1 vector that adds an N-terminal fusion tag consisting of an octahistidine tag followed by eGFP, a Gly-Thr-Gly-Thr linker and a 3C protease cleavage site ([…]) followed by WT DrOTOP1, WT mOTOP1, WT hOTOP1, or mutated DrOTOP1. Point mutations were generated via In-Fusion Cloning (Takara) using single-stranded DNA primers generated through IDT and sequence confirmed by Sanger sequencing (GeneWiz).
Whole-cell patch-clamp recording was performed as previously described[6],[22],[25]. Recordings were made with an Axopatch 200B amplifier, digitized with a Digidata 1322a 16-bit data acquisition system, acquired with pClamp 8.2 and analyzed with Clampfit 10 (Molecular Devices). Recordings were sampled at 5 kHz and filtered at 1 kHz. Patch Pipettes with resistance of […] were fabricated from borosilicate glass, and only recordings with a giga-Ohm seal were used in analysis. Membrane potential was held at −80 mV for the duration of recordings. At the beginning of recordings and between, cells were washed with Tyrode’s solution (see below). […]

**Q.** With C=C(C)COc1ccccc1NC(=O)c1nc[nH]c1C [C2.2] as the molecule, how does the Hill coefficient read?
**A.** 1.184

**Q.** What about the inhibition at 3 µM (3 µM, single cells) of the same molecule?
**A.** 10.2%

**Q.** What about the inhibition at 10 µM (10 µM, single cells or mean) of the same molecule?
**A.** ~40%

**Q.** And the inhibition at 30 µM (30 µM, single cells)?
**A.** 70.7%

**Q.** And the inhibition at 100 µM (100 µM, single cells)?
**A.** 96.3%

**Q.** What about the inhibition at 300 µM (300 µM, single cells) of the same molecule?
**A.** 97.3%

**Q.** And the IC50 (pH 5.5)?
**A.** 15.3 µM
